Reference: US20250129027A1 (APOGEE PHARMACEUTICALS, INC., priority 2023, published 2025)

Legend:
human recombinant MAGL = human recombinant MAGL (Homo sapiens (Human), UniProt Q99685); assay: In vitro inhibition of MAGL activity (inhibitor screening kit, 4-nitrophenylacetate); type: biochemical; settings: human recombinant MAGL
Procedure: The inhibitory effect of the compounds on activity of human recombinant MAGL was also studied using a commercial inhibitor screening kit (Cayman Chemicals). In brief, MAGL hydrolyzes 4-nitrophenylacetate resulting in a yellow product, 4-nitrophenol with an absorbance at 405-412 nm, while the inhibitor will inhibit the MAGL activity and thus reduce the yellow signal. The absorbance of the yellow product can be analyzed using the plate reader. Inhibition is calculated as a percentage of the treated sample over the non-treated MAGL control based on the signal values.

human recombinant FAAH = human recombinant FAAH (Homo sapiens (Human), UniProt O00519); assay: In vitro inhibition of FAAH activity (fluorescent inhibitor screening kit, AMC arachidonoyl amide); type: biochemical; settings: human recombinant FAAH; read-out: Inhibition on FAAH activity (IC50)
Text: The inhibitory effect of compounds of Formula (I-IV) on the activity of human recombinant FAAH was studied using a commercial inhibitor screening kit (Cayman Chemicals, Godlewski et al., 2010 [19]). In brief, FAAH hydrolyzes AMC arachidonoyl amide resulting in the release of the fluorescent product, while the inhibitor will inhibit the FAAH activity and thus reduce the fluorescent signal. The resulting fluorophore can be analyzed using an excitation wavelength of 340-360 nm and an emission wavelength of 450-465 nm by a plate reader (Synergy H1, Biotek). Inhibition is calculated as a percentage of the treated sample over the non-treated control based on the signal values, and where possible, a range of concentrations of compounds was tested to find the IC50 values (i.e. the concentration of compound that inhibited 50% FAAH activity).

human recombinant MAGL, sequence (Q99685 whole entry): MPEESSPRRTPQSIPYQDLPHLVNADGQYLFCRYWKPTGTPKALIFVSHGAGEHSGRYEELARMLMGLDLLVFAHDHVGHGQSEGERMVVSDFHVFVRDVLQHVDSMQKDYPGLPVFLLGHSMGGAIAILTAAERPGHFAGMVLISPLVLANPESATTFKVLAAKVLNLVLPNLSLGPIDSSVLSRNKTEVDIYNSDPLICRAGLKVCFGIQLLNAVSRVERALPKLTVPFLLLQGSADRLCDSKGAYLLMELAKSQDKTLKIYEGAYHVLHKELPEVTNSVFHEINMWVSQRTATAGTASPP
human recombinant FAAH, sequence (O00519 whole entry): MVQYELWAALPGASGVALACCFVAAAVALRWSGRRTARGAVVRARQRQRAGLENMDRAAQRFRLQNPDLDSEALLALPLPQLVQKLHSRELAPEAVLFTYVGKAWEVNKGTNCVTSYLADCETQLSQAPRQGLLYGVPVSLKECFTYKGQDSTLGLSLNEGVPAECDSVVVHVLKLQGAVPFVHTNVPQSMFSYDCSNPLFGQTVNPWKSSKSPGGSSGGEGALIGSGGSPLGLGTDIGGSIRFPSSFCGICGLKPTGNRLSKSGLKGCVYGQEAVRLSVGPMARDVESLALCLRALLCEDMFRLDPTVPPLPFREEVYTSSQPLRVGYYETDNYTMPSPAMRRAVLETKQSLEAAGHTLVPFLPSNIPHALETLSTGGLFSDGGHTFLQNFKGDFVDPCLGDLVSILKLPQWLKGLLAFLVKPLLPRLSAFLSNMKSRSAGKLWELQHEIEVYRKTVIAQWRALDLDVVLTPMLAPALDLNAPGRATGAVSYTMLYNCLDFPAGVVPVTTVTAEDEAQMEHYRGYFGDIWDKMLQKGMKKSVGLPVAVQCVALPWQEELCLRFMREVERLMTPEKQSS

How did the IC50 (human recombinant MAGL) turn out when O=C(NCc1ccccc1)Oc1cccc(-c2cncc(-c3ccc[nH]3)c2)c1 [Example 37, 3-(5-(1H-pyrrol-2-yl)pyridin-3-yl)phenyl benzylcarbamate] was run?
The IC50 was over 10 µM.

What about the IC50 (human recombinant FAAH) of the same molecule?
Its IC50 is about 1000 nM.

For O=C(NC1CCCC1)Oc1cccc(-c2cncc(-c3ncn[nH]3)c2)c1 [Example 223, 3-(5-(1H-1,2,4-triazol-5-yl)pyridin-3-yl)phenyl cyclopentylcarbamate], which IC50 (human recombinant MAGL) is on record?
Its IC50 is over 10 µM.

And the IC50 (human recombinant FAAH)?
Its IC50 is 100 to 1000 nM.

How did the IC50 (human recombinant MAGL) turn out when Cc1ccc(-c2cncc(-c3ncco3)c2)cc1OC(=O)NC1CCCCCCC1 [Example 98, 2-methyl-5-(5-(oxazol-2-yl)pyridin-3-yl)phenyl cyclooctylcarbamate] was run?
Its IC50 is about 1 µM.

And the IC50 (human recombinant FAAH)?
The IC50 was over 1000 nM.

How did the IC50 (human recombinant MAGL) turn out when COc1ccc(OC(=O)NCc2ccccc2)cc1-c1cncc(-c2ncn[nH]2)c1 [Example 234, 3-(5-(1H-1,2,4-triazol-5-yl)pyridin-3-yl)-4-methoxyphenyl benzyl carbamate] was run?
The IC50 was over 10 µM.

And the IC50 (human recombinant FAAH)?
Its IC50 is over 1000 nM.

What does the source list for COc1ccc(OC(=O)NC2CCCC2)cc1-c1cncc(-c2ccco2)c1 [Example 56, 3-(5-(furan-2-yl)pyridin-3-yl)-4-methoxyphenyl cyclopentylcarbamate]?
IC50 (human recombinant MAGL): > 10 µM; IC50 (human recombinant FAAH): 100 to 1000 nM

With COc1ccc(OC(=O)NCc2ccccc2)cc1-c1cncc(-c2cccs2)c1 [Example 67, 4-methoxy-3-(5-(thiophen-2-yl)pyridin-3-yl)phenyl benzylcarbamate] as the molecule, how does the IC50 (human recombinant MAGL) read?
Its IC50 is over 10 µM.

What about the IC50 (human recombinant FAAH) of the same molecule?
Its IC50 is over 1000 nM.

Which IC50 (human recombinant MAGL) does the source give for O=C(NC1CCCCC1)Oc1cccc(-c2cncc(C(F)(F)F)c2)c1 [Example 33, 3-(5-(trifluoromethyl)pyridin-3-yl)phenyl cyclohexylcarbamate] here?
Its IC50 is over 10 µM.

And the IC50 (human recombinant FAAH)?
Its IC50 is 100 to 1000 nM.

What does the source list for O=C(NC1CCCCCC1)Oc1cccc(-c2cncc(-c3ncno3)c2)c1 [Example 206, 3-(5-(1,2,4-oxadiazol-5-yl)pyridin-3-yl)phenyl cycloheptylcarbamate]?
IC50 (human recombinant MAGL): > 10 µM; IC50 (human recombinant FAAH): 10 to 100 nM

For COc1ccc(OC(=O)NC2CCCCC2)cc1-c1cncc(-c2nncs2)c1 [Example 217, 3-(5-(1,3,4-thiadiazol-2-yl)pyridin-3-yl)-4-methoxyphenyl cyclohexylcarbamate], which IC50 (human recombinant FAAH) is on record?
Its IC50 is 100 to 1000 nM.

What does the source list for CCCCCCCCNC(=O)Oc1ccc(OC)c(-c2cncc(-c3nncs3)c2)c1 [Example 213, 3-(5-(1,3,4-thiadiazol-2-yl)pyridin-3-yl)-4-methoxyphenyl octylcarbamate]?
IC50 (human recombinant MAGL): ~10 µM; IC50 (human recombinant FAAH): 1 to 10 nM

Which IC50 (human recombinant MAGL) does the source give for O=C(NCC1CCCCC1)Oc1cccc(-c2cncc(C(F)(F)F)c2)c1 [Example 31, 3-(5-(trifluoromethyl)pyridin-3-yl)phenyl (cyclohexylmethyl)carbamate] here?
Its IC50 is over 1 µM.

And the IC50 (human recombinant FAAH)?
Its IC50 is 10 to 100 nM.

With CCCCCCCNC(=O)Oc1cccc(-c2cncc(-c3ncco3)c2)c1 [Example 72, 3-(5-(oxazol-2-yl)pyridin-3-yl)phenyl heptylcarbamate] as the molecule, how does the IC50 (human recombinant MAGL) read?
The IC50 was over 1 µM.

And the IC50 (human recombinant FAAH)?
The IC50 was 1 to 10 nM.

Which IC50 (human recombinant MAGL) does the source give for COc1ccc(OC(=O)NCc2ccccc2)cc1-c1cncc(-c2nncs2)c1 [Example 215, 3-(5-(1,3,4-thiadiazol-2-yl)pyridin-3-yl)-4-methoxyphenyl benzylcarbamate] here?
Its IC50 is over 10 µM.

What about the IC50 (human recombinant FAAH) of the same molecule?
The IC50 was 100 to 1000 nM.

COc1ccc(OC(=O)NCC2CCCCC2)cc1-c1cncc(-c2nccs2)c1 [Example 122, 4-methoxy-3-(5-(thiazol-2-yl)pyridin-3-yl)phenyl (cyclohexylmethyl)carbamate] was tested. Which IC50 (human recombinant MAGL) did it give?
The IC50 was about 10 µM.

What about the IC50 (human recombinant FAAH) of the same molecule?
The IC50 was 100 to 1000 nM.

Which IC50 (human recombinant FAAH) does the source give for CCCCCCCCNC(=O)Oc1ccc(OC)c(-c2cncc(-c3nnco3)c2)c1 [Example 167, 3-(5-(1,3,4-oxadiazol-2-yl)pyridin-3-yl)-4-methoxyphenyl octylcarbamate] here?
The IC50 was 1 to 10 nM.

Which IC50 (human recombinant MAGL) does the source give for O=C(NC1CCCCC1)Oc1cccc(-c2cncc(-c3nncs3)c2)c1 [Example 211, 3-(5-(1,3,4-thiadiazol-2-yl)pyridin-3-yl)phenyl cyclohexylcarbamate] here?
The IC50 was over 10 µM.

What about the IC50 (human recombinant FAAH) of the same molecule?
Its IC50 is over 1000 nM.

COc1ccc(OC(=O)NC2CCCCC2)cc1-c1cncc(-c2ccco2)c1 [Example 57, 3-(5-(furan-2-yl)pyridin-3-yl)-4-methoxyphenyl cyclohexylcarbamate] was tested. Which IC50 (human recombinant MAGL) did it give?
Its IC50 is over 10 µM.

What about the IC50 (human recombinant FAAH) of the same molecule?
Its IC50 is 100 to 1000 nM.

With Cc1ccc(-c2cncc(-c3ncco3)c2)cc1OC(=O)NC1CCCCCC1 [Example 97, 2-methyl-5-(5-(oxazol-2-yl)pyridin-3-yl)phenyl cycloheptylcarbamate] as the molecule, how does the IC50 (human recombinant MAGL) read?
Its IC50 is over 1 µM.

And the IC50 (human recombinant FAAH)?
The IC50 was over 1000 nM.

How did the IC50 (human recombinant FAAH) turn out when CCCCCNC(=O)Oc1cccc(-c2cncc(C(=O)OC)c2)c1 [Example 8, methyl 5-(3-((pentylcarbamoyl)oxy)phenyl)nicotinate] was run?
The IC50 was 10 to 100 nM.

Which IC50 (human recombinant MAGL) does the source give for O=C(NC1CCCCCC1)Oc1cccc(-c2cncc(-c3nncs3)c2)c1 [Example 212, 3-(5-(1,3,4-thiadiazol-2-yl)pyridin-3-yl)phenyl cycloheptylcarbamate] here?
Its IC50 is over 10 µM.

What about the IC50 (human recombinant FAAH) of the same molecule?
Its IC50 is 10 to 100 nM.

What does the source list for O=C(NCC1CCCCC1)Oc1cccc(-c2cncc(-c3ncn[nH]3)c2)c1 [Example 220, 3-(5-(1H-1,2,4-triazol-5-yl)pyridin-3-yl)phenyl (cyclohexylmethyl)carbamate]?
IC50 (human recombinant MAGL): ~10 µM; IC50 (human recombinant FAAH): 10 to 100 nM

Which IC50 (human recombinant MAGL) does the source give for COc1ccc(OC(=O)NC2CCCCC2)cc1-c1cncc(-c2nccs2)c1 [Example 125, 4-methoxy-3-(5-(thiazol-2-yl)pyridin-3-yl)phenyl cyclohexylcarbamate] here?
Its IC50 is over 10 µM.

What about the IC50 (human recombinant FAAH) of the same molecule?
Its IC50 is 100 to 1000 nM.

What does the source list for CCCCCCCCNC(=O)Oc1cc(-c2cncc(-c3ncco3)c2)ccc1C [Example 92, 2-methyl-5-(5-(oxazol-2-yl)pyridin-3-yl)phenyl octylcarbamate]?
IC50 (human recombinant MAGL): > 10 µM; IC50 (human recombinant FAAH): 100 to 1000 nM

Which IC50 (human recombinant MAGL) does the source give for O=C(NC1CCCCC1)Oc1cccc(-c2cc(-c3nnco3)ccn2)c1 [Example 260, 3-(4-(1,3,4-oxadiazol-2-yl)pyridin-2-yl)phenyl cyclohexylcarbamate] here?
The IC50 was over 10 µM.

How did the IC50 (human recombinant FAAH) turn out when CCCCCCCCNC(=O)Oc1cccc(-c2cncc(C(F)(F)F)c2)c1 [Example 30, 3-(5-(trifluoromethyl)pyridin-3-yl)phenyl octylcarbamate] was run?
The IC50 was 10 to 100 nM.

Which IC50 (human recombinant FAAH) does the source give for CCCCCCCCNC(=O)Oc1cccc(-c2cncc(C#N)c2)c1 [Example 27, 3-(5-cyanopyridin-3-yl)phenyl octylcarbamate] here?
The IC50 was 10 to 100 nM.

With CCCCCCCCNC(=O)Oc1ccc(OC)c(-c2cncc(-c3ccc[nH]3)c2)c1 [Example 41, 3-(5-(1H-pyrrol-2-yl)pyridin-3-yl)-4-methoxyphenyl octylcarbamate] as the molecule, how does the IC50 (human recombinant FAAH) read?
Its IC50 is 10 to 100 nM.

For CCCCCCNC(=O)Oc1cccc(-c2cncc(-c3nnco3)c2)c1 [Example 128, 3-(5-(1,3,4-oxadiazol-2-yl)pyridin-3-yl)phenyl hexylcarbamate], which IC50 (human recombinant FAAH) is on record?
Its IC50 is 10 to 20 nM.

CCCCCCCCNC(=O)Oc1cccc(-c2cncc(C(=O)OCC)c2)c1 [Example 3, ethyl 5-(3-((octylcarbamoyl)oxy)phenyl)nicotinate] was tested. Which IC50 (human recombinant FAAH) did it give?
The IC50 was 10 to 100 nM.

For CCCCCCCCNC(=O)Oc1ccc(O)c(-c2cncc(-c3nnco3)c2)c1 [Example 157, 3-(5-(1,3,4-oxadiazol-2-yl)pyridin-3-yl)-4-hydroxyphenyl octylcarbamate], which IC50 (human recombinant FAAH) is on record?
Its IC50 is 1 to 10 nM.

CCCCCCCNC(=O)Oc1cccc(-c2cncc(C(=O)OC)c2)c1 [Example 9, methyl 5-(3-((heptylcarbamoyl)oxy)phenyl)nicotinate] was tested. Which IC50 (human recombinant FAAH) did it give?
The IC50 was 1 to 10 nM.

CCCCCCCCNC(=O)Oc1ccc(OC(F)(F)F)c(-c2cncc(-c3ncco3)c2)c1 [Example 88, 3-(5-(oxazol-2-yl)pyridin-3-yl)-4-(trifluoromethoxy)phenyl octylcarbamate] was tested. Which IC50 (human recombinant FAAH) did it give?
Its IC50 is 10 to 100 nM.

How did the IC50 (human recombinant FAAH) turn out when CCCCCCCCNC(=O)Oc1cccc(-c2cncc(-c3ccco3)c2)c1 [Example 47, 3-(5-(furan-2-yl)pyridin-3-yl)phenyl octylcarbamate] was run?
Its IC50 is 1 to 10 nM.

How did the IC50 (human recombinant FAAH) turn out when CCCCCCCNC(=O)Oc1ccc(OC)c(-c2cncc(-c3nnco3)c2)c1 [Example 166, 3-(5-(1,3,4-oxadiazol-2-yl)pyridin-3-yl)-4-methoxyphenyl heptylcarbamate] was run?
Its IC50 is 10 to 100 nM.

For CCCCCCCCNC(=O)Oc1ccc(OC)c(-c2cncc(-c3cccs3)c2)c1 [Example 65, 4-methoxy-3-(5-(thiophen-2-yl)pyridin-3-yl)phenyl octylcarbamate], which IC50 (human recombinant FAAH) is on record?
The IC50 was 10 to 100 nM.

With CCCCCCCNC(=O)Oc1cccc(-c2cncc(C#N)c2)c1 [Example 26, 3-(5-cyanopyridin-3-yl)phenyl heptylcarbamate] as the molecule, how does the IC50 (human recombinant FAAH) read?
The IC50 was 10 to 100 nM.

With CCCCCCCCCCCCNC(=O)Oc1cccc(-c2cncc(-c3nnco3)c2)c1 [Example 131, 3-(5-(1,3,4-oxadiazol-2-yl)pyridin-3-yl)phenyl dodecylcarbamate] as the molecule, how does the IC50 (human recombinant FAAH) read?
Its IC50 is 10 to 20 nM.

With CCCCCCCCNC(=O)Oc1cccc(-c2cncc(C(=O)OC)c2)c1 [Example 10, methyl 5-(3-((octylcarbamoyl)oxy)phenyl)nicotinate] as the molecule, how does the IC50 (human recombinant FAAH) read?
Its IC50 is 1 to 10 nM.

CCCCCCCNC(=O)Oc1ccc(O)c(-c2cncc(-c3nnco3)c2)c1 [Example 156, 3-(5-(1,3,4-oxadiazol-2-yl)pyridin-3-yl)-4-hydroxyphenyl heptylcarbamate] was tested. Which IC50 (human recombinant FAAH) did it give?
The IC50 was 1 to 10 nM.

With CCCCCNC(=O)Oc1cccc(-c2cncc(C(=O)OCC)c2)c1 [Example 1, ethyl 5-(3-((pentylcarbamoyl)oxy)phenyl)nicotinate] as the molecule, how does the IC50 (human recombinant FAAH) read?
The IC50 was 10 to 100 nM.

For CCCCCCCCNC(=O)Oc1cccc(-c2cncc(-c3nnco3)c2)c1 [Example 130, 3-(5-(1,3,4-oxadiazol-2-yl)pyridine-3-yl)phenyl octylcarbamate], which IC50 (human recombinant FAAH) is on record?
The IC50 was 1 to 10 nM.
